Reference: patent publication US20230414607A1, “METHODS OF TREATMENT” (BOW RIVER LLC, priority 2017, published 2023)
Like-named read-outs stand apart in the source and are kept apart here.

Tests used:
[1] = Pooled posaconazole steady-state concentration and elimination half-life, clinical studies BOW-001 and BOW-002; type: in vivo, human; details: for half-life: human, in vivo
Excerpt: The two clinical studies used the same protocol to measure posaconazole's elimination half-life, allowing for the data for normal patients from each study to be combined (“All Normal”) and data for obese patients from each study to be combined (“All Obese”).

[2] = molecular target: CYP3A4 (Homo sapiens, UniProt P08684); details: human
CYP3A4, sequence (P08684 whole entry): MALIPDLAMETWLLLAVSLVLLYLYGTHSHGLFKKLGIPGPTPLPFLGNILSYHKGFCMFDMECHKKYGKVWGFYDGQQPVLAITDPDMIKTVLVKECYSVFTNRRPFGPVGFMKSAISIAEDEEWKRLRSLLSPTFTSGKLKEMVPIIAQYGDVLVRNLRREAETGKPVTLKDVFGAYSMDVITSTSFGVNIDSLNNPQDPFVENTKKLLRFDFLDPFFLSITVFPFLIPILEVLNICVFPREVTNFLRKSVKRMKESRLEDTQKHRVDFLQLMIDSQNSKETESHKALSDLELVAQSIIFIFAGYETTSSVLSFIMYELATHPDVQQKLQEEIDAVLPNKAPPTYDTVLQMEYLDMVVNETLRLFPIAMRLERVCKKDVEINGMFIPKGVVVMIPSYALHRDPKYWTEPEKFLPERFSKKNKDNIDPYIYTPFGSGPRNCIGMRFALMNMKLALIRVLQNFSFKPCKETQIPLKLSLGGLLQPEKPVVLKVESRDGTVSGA
Excerpt: Blood plasma levels may be described in various ways, such as area under the plasma concentration curve (AUC) and peak plasma concentration (Cmax). Baseline levels and posaconazole interaction levels for CYP3A4 substrate drugs may be compared using the geometric mean ratio (GMR) of AUC and Cmax. […] GMR is the standard industry and regulatory method for assessing the ratio of change of a pharmacokinetic variable (such as AUC) relative to its own baseline value (e.g., in a patient that was not treated with posaconazole). Once the level of substrate drug (AUC or Cmax) during co-administration with posaconazole and a CYP3A4 substrate drug is known, a function can be derived using conventional pharmacological methods to estimate how the AUC or plasma level of the CYP3A4 substrate drug is expected to decay over time after stopping administration of posaconazole. Such a function can be used to provide a plot of the decay GMR of AUC (or Cmax) of the CYP3A4 substrate drug versus time due to its interaction with posaconazole, based on the stated half-life of posaconazole.
The expected DDI decay curve can also be calculated for Cmax GMR by substituting Cmax during co-administration for AUC during co-administration in equation 1. As used herein, “expected levels” and “predicted levels” and the like, refer to the AUC or Cmax GMR values calculated using equation 1.

[3] = Example 2: posaconazole pharmacokinetics in normal-weight and obese subjects; type: in vivo, human; details: for Steady-state concentration, Mean ± SD: posaconazole 300 mg once daily; for half-life: human, plasma, oral
Procedure: On study Day 4, subjects received two doses of posaconazole (300 mg BID). On the mornings of Days 5-17, they received posaconazole 300 mg once daily. As posaconazole is to be taken with food, subjects were fed a continental breakfast in the clinical research unit after receiving posaconazole and prior to discharge from the unit. Venous blood samples were drawn into EDTA containing tubes prior to the posaconazole dose on Days 4, 7, 11, and prior to the lurasidone dose on Days 14, 20, 23, 26 and 30. An additional blood sample was taken 5 hours after posaconazole dosage on Day 17, for approximate determination of maximum posaconazole plasma concentrations, and on Day 33. Samples were centrifuged and the plasma was separated and frozen at −70° C. until the time of assay.
Analytic Methods. All bioassay analyses were performed by Keystone Bioanalytical, North Wales, PA. For analysis of posaconazole, the internal standard (posaconazole-D4) was added to the biological samples. Plasma samples were precipitated using formic acid in acetonitrile and isolated using a Phree phospholipid removal tube. An aliquot of the sample was injected onto a high-pressure liquid chromatograph with tandem mass spectrometry triple quadrupole mass spectrometer (SCIEX API-5500). The analytical column was a Unison CK-218, 3 μm particle size HPLC column (50×2 mm) from Imtakt USA (Portland, OR). The mobile phase consisted of an aqueous component (0.25% formic acid and 10 mM ammonium formate in water) and an organic component (0.1% formic acid in acetonitrile) and was delivered by gradient, with the organic component going from 35% to 100%. The m/z transitions monitored were 701.6>614.4 for posaconazole and 705.6>618.4 for the internal standard. The calibration curve ranged from 1-1000 ng/mL (8 concentrations in duplicate).
Pharmacokinetic and Statistical Methods. […] The apparent washout half-life of posaconazole was calculated by log-linear regression analysis starting with the plasma concentration on Day 20 and ending with the last non-zero value. Differences between normal-weight and obese cohorts were evaluated by Student's t-test for independent groups. The relation between measures of body habitus and posaconazole washout half-life for individual subjects was evaluated by linear regression analysis.

[4] = Example 3: posaconazole posttreatment washout; type: in vivo; details: human, plasma, oral, 300 mg
[5] = Plasma posaconazole concentrations and washout half-life in normal-weight and obese subjects; type: in vivo, human; details: for Trough (predose) steady-state posaconazole concentration: Day 15, posaconazole 300 mg delayed-release tablet daily; for half-life: human, plasma, oral, from day 15, read-out: Postdosage washout half-life of posaconazole (converted)
Procedure: On study day 2, subjects received posaconazole (300 mg delayed-release tablet twice a day), and on the mornings of days 3-15, subjects received posaconazole (300 mg delayed-release tablet daily). Because posaconazole is to be taken with food,^6 subjects were fed a continental breakfast in the clinical research unit after receiving posaconazole and before discharge from the unit. […] One additional blood sample was taken 5 hours after the posaconazole dose on day 15 for approximate determination of maximum plasma posaconazole concentrations. Samples were centrifuged, and the plasma was separated and frozen at −70° C. until the time of assay of plasma posaconazole concentrations.
Analytic Methods. All bioassay analysis was performed by Keystone Bioanalytical (North Wales, PA). For analysis of posaconazole, the internal standard (posaconazole-d4) was added to the biological samples. Plasma samples were precipitated using formic acid in acetonitrile and isolated using a Phree phospholipid removal tube, and then an aliquot of the sample was injected onto a high-pressure liquid chromatography with tandem mass spectrometry triple quadrupole mass spectrometer (Sciex API-5500). The analytical column was a Unison CK-218, 3 μm particle size HPLC column (50×2 mm) from Imtakt USA (Portland, OR). The mobile phase consisted of an aqueous component (0.25% formic acid and 10 mmol/L ammonium formate in water) and an organic component (0.1% formic acid in acetonitrile) and was delivered by gradient, with the organic component going from 35% to 100%. The m/z transitions monitored were 701.6→614.4 for posaconazole and 705.6→618.4 for the internal standard. The calibration curve ranged from 1 to 1000 ng/mL (8 concentrations in duplicate). The interassay precision of this method (as percentage coefficient of variance) was 4.28% to 7.14%, and the interassay accuracy (as percentage relative error) was […] to 3.12%.
For each subject, the predose plasma posaconazole concentration on study day 15 was used as a steady-state concentration. The apparent washout half-life of posaconazole was calculated by log-linear regression analysis starting with the plasma concentration on day 15 and ending with the last nonzero value. Differences between normal-weight and obese cohorts were evaluated by Student t-test for independent groups.

[6] = Noxafil label, cited from earlier work

For `CC[C@@H]([C@H](C)O)n1ncn(-c2ccc(N3CCN(c4ccc(OC[C@@H]5CO[C@@](Cn6cncn6)(c6ccc(F)cc6F)C5)cc4)CC3)cc2)c1=O` [posaconazole], the “Css, Mean” value ([1]; All Normal (pooled)) was 2864 ng/mL, the “Css, Mean” value ([1]; All Obese (pooled)) was 1860 ng/mL and the “Css, Mean” value ([1]; BOW-001 Normal) was 3071 ng/mL. The “Css, Mean” value ([1]; BOW-001 Obese) was 2258 ng/mL, the “Css, Mean” value ([1]; BOW-002 Normal) was 2514 ng/mL and the “Css, Mean” value ([1]; BOW-002 Obese) was 1462 ng/mL. It also gave a half-life ([1]; All Normal (pooled), normal weight patients, read-out: t1/2, Mean (elimination half-life) (converted)) of 33.6 h, a half-life ([1]; All Obese (pooled), obese patients, read-out: t1/2, Mean (elimination half-life) (converted)) of 58.3 h and a half-life ([1]; BOW-001 Normal, read-out: t1/2, Mean (converted)) of 35.7 h. It also gave a half-life ([1]; BOW-001 Obese, read-out: t1/2, Mean (converted)) of 64.5 h, a half-life ([1]; BOW-002 Normal, read-out: t1/2, Mean (converted)) of 30.9 h and a half-life ([1]; BOW-002 Obese, read-out: t1/2, Mean (converted)) of 52.5 h. For the same compound, the “Kel=ln(2)/(31 hours/24 hours)” value [2] was “about 0.5366”, the “Steady-state concentration, Mean ± SD” value ([3]; Normal) was 2377 ± 1188 ng/mL and the “Steady-state concentration, Mean ± SD” value ([3]; Obese) was 1462 ± 649 ng/mL. The half-life ([3]; Normal, read-out: Washout half-life, Mean ± SD (converted)) was 31 h, the half-life ([3]; Obese, read-out: Washout half-life, Mean ± SD (converted)) was 53 h and the half-life ([3]; controls (normal-weight), read-out: Mean washout half-life (converted)) was 30.7 h. It also gave a half-life ([3]; obese group, read-out: Mean washout half-life (converted)) of 52.6 h, a half-life ([3]; two obese subjects, read-out: very long half-life values (converted)) of 121 h and a half-life ([4]; normals) of 36 h. For the same compound, the half-life ([4]; obese subjects) was 64 h, the “Trough (predose) steady-state posaconazole concentration” value ([5]; normal-weight subjects) was 3071 ± 1422 ng/mL and the “Trough (predose) steady-state posaconazole concentration” value ([5]; obese subjects) was 2258 ± 952 ng/mL. The half-life ([5]; normal-weight subjects) was 35.8 h, the half-life ([5]; obese subjects) was 64.3 h and the “Time posaconazole plasma concentrations persisted after stopping treatment” value ([5]; most subjects) was “at least 2 weeks”. The posaconazole half-life ([6]; after administration of posaconazole oral suspension) was 31 to 37 h, the posaconazole half-life ([6]; after dosing with posaconazole injection) was “about 24 hours” and the posaconazole half-life ([6]; patients with mild hepatic impairment) was 39 h. For the same compound, the posaconazole half-life ([6]; patients with moderate hepatic impairment) was 27 h, the posaconazole half-life ([6]; patients with normal hepatic function) was 27 h and the posaconazole half-life ([6]; patients with severe hepatic impairment) was 43 h.
